Source: patent US8653304B2, “2,3-dihydro-1H-indene-2-yl urea derivative and pharmaceutical application of same” (Toray Industries, Inc., priority 2009, dated 2014)

What was measured:
Assay type in all cases: in vivo
[1] = tested on: hyperalgesia in carrageenin paw edema pain model; experiment: Hyperalgesia in inflammatory pain model (carrageenin paw edema pain model); conditions: SD rat, oral 100 mg/kg 30 minutes before carrageenin, measured 90 minutes after carrageenin; FIG. 1
Source text: The action of Compound (I) on hyperalgesia in pain models was studied. As the pain models, models partially modified from an inflammatory pain model (a carrageenin paw edema pain model) and neuropathic pain models (Bennett model and Chung model) described in documents (Anesth. Analg., 2009, Vol. 108, pp. 1680-1687; Pain, 1988, Vol. 33, pp. 87-107; and Pain, 1992, Vol. 50, pp. 355-363) were used.
To the footpad of the left hind limb of each Crl:CD (SD) rat (male, 6-week old, Charles River Laboratories Japan, Inc.), an 1 w/v % suspension of carrageenin (Zushi Kagaku Laboratory, Inc.) in physiological saline was subcutaneously administered at 0.1 mL/body to produce the carrageenin paw edema pain model. Ninety minutes after the administration of the 1 w/v % suspension of carrageenin in physiological saline, the pain threshold (mmHg) of the footpad of the left hind limb was measured using Analgesy Meter (TK-201, Unicom) wherein the stimulating pressure was set so as to rise from 0 mmHg to 100 mmHg for 10 seconds. Each test compound was suspended in 0.5 w/v % methylcellulose (Wako Pure Chemical Industries, Ltd.), and the obtained solution was orally administered 30 minutes before the administration of the 1 w/v % suspension of carrageenin in physiological saline. […]

[2] = tested on: skin swelling response in type I allergic dermatitis model; experiment: Skin swelling response in type I allergic dermatitis model; conditions: BALB/c mouse, 20 μL of 0.5 w/v % solution applied to auricle 1 hour before induction
Source text: (§1) The action of Compound (I) on skin swelling response in mouse allergic dermatitis models was studied. As the allergic dermatitis models, models partially modified from a type I allergic dermatitis model and a type IV allergic dermatitis model described in documents (Inflamm. Res., 1998, Vol. 47, pp. 506-511 and Int. Arch. Allergy. Appl. Immunol., 1990, Vol. 92, pp. 356-360) were used.
To each BALB/c mouse (female, 7-week old, Charles River Laboratories Japan, Inc.), mouse IgE anti-DNP antibody (0.05 mg/body, […] CORPORATION) was intravenously administered to passively sensitize the mouse. Twenty four hours after the sensitization, 20 μL of 0.38% DNFB (SIGMA) dissolved in acetone:olive oil (4:1) was applied to the auricle of the mouse to induce inflammation. From after the induction to 24 hours, the thickness of the auricle was measured with time using a Digimatic Indicator (Mitutoyo). Each test compound was dissolved in ethanol, and 20 μL of 0.5 w/v % solution was applied to the auricle at 1 hour before the induction.
The swelling ratio of the auricle was calculated according to the following equation. […] Auricular Swelling Ratio(%)=(A−B)/B×100

[3] = tested on: skin swelling response in type IV allergic dermatitis model; experiment: Skin swelling response in type IV allergic dermatitis model; conditions: BALB/c mouse, 24 hours after induction
Description: as §1
To the back of each BALB/c mouse (female, 7-week old, Charles River Laboratories Japan, Inc.), 25 μL of 0.5% DNFB solution dissolved in acetone:olive oil (4:1) was applied. On the next day, the same operations were repeated to actively sensitize the mouse. Four days after the sensitization, 20 μL of 0.2% DNFB solution dissolved in acetone:olive oil (4:1) was applied to the auricle of the sensitized mouse to induce inflammation. Twenty four hours after the induction, the thickness of the auricle was measured using a Digimatic Indicator (Mitutoyo). Each test compound was dissolved in ethanol and 20 μL of 0.5 w/v % solution was applied to the auricle at 1 hour before the induction; or each test compound was suspended in 0.5% methylcellulose (Wako Pure Chemical Industries, Ltd.) and the resulting solution was orally administered at 30 mg/kg at 1 hour before the induction. The swelling ratio of the auricle was calculated according to the following equation: Auricular Swelling Ratio(%)=(A−B)/B×100

[4] = Pharmacokinetic evaluation in mouse (oral); conditions: male; BALB/c mouse, oral 0.8 mg/kg, plasma
Description: Each test compound was dissolved in 10% HP-β-CD (Nihon Shokuhin Kako Co., Ltd.) to prepare a solution to be administered (0.08 mg/mL, as a solution to be administered for oral administration). To each BALB/c mouse (male, 7-week old, Charles River Laboratories Japan, Inc.), each compound was orally administered at a dose of 0.8 mg/kg. Blood was collected from the jugular vein or heart with time up to 24 hours after the administration. The obtained blood was centrifuged to collect blood plasma. The blood plasma was pretreated by methanol extraction method, and the concentration of the compound was analyzed by LC/MS/MS (ESI positive mode).
In this table, Cmax represents a maximum plasma concentration; and AUC0-∞ represents an area under the curve of the plasma concentration of the compound from after the compound administration to infinite time.

- AUC(0-inf) [4]: 588 ng·h/mL
- Cmax [4]: 561 ng/mL
SMILES: COc1c(NC(=O)N[C@@H]2Cc3ccccc3[C@@H]2O)cc(C(C)(C)C)cc1[C@@H](O)C(F)(F)F [Compound 46b, 1-(5-tert-butyl-2-methoxy-3-((R)-2,2,2-trifluoro-1-hydroxyethyl)phenyl)-3-((1S,2R)-1-hydroxy-2,3-dihydro-1H-indene-2-yl)urea]
- pain threshold (mmHg) compared to solvent-administered group [1]: significantly elevated
- suppression ratio on immediate response (auricular swelling AUC 0-4 hours) [2]: 94.4%
- suppression ratio on late response (auricular swelling AUC 5-10 hours) [2]: 93.1%
- suppression ratio of auricular swelling, oral administration ([3]; 30 mg/kg oral 1 hour before induction): 37.7%
- suppression ratio of auricular swelling, auricular application ([3]; 20 μL of 0.5 w/v % solution on auricle 1 hour before induction): 49.2%
